The values below are quoted from earlier work in patent US11504387B2, “Bioconversion of oleuropein” (SOCIETE DES PRODUITS NESTLE S.A., priority 2017, dated 2022).

For series [1] the following is noted: compared to caffeic acid, oleuropein and hydroxytyrosol.
The conditions of series [2]: in vivo.
For series [3] the following is noted: upper gastrointestinal tract and small intestine.
For series [4] the following is noted: compared with hydroxytyrosol.

Turning to `CC=C1C(O)OC=C(C(=O)OC)C1CC(=O)OCCc1ccc(O)c(O)c1` (stereo not shown) [oleuropein aglycone, 3,4-dihydroxyphenylethanol-elenolic acid], the antioxidant activity result in series [1] was “comparable to that of caffeic acid, oleuropein and hydroxytyrosol”. For the same compound, the “clearance from the plasma” value in series [2] is “slower clearance from the plasma compared with hydroxytyrosol and oleuropein”.

In the case of `C/C=C1/[C@H](O[C@@H]2O[C@H](CO)[C@@H](O)[C@H](O)[C@H]2O)OC=C(C(=O)OC)[C@H]1CC(=O)OCCc1ccc(O)c(O)c1` [oleuropein], in series [3], the resistance to degradation entry is “resists degradation in the upper gastrointestinal tract and the small intestine”.

On to hydroxytyrosol acetate, for which the “solubility in the lipophilic phases” value in series [4] is “more soluble in the lipophilic phases than hydroxytyrosol”.
